Experimental data taken from ChEMBL document CHEMBL5604064, “ASAP - DENV-1 NS2B-NS3 protease fluorescence dose response” (2024).
Values joined by “and” are separate entries in the source; they are usually repeats but may differ in a detail not shown here. Equal entries are not always repeated.

Target: T1, NS3 protease (dengue virus type 1, UniProt A0A0K0TQ28)
T1 sequence (A0A0K0TQ28 whole entry): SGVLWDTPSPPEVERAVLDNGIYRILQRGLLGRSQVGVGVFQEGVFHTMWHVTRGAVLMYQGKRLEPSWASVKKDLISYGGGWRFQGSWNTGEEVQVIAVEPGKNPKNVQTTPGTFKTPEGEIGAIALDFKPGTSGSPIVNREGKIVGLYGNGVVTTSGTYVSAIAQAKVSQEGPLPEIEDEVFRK
Test: Functional biochemical assay to identify treatments for viral infectious disease that targets Dengue virus type 1 NS2B-NS3 protease. Utilizing a direct enzyme activity measurement method, reading the fluorescence intensity is used to characterize the relative potency of inhibitors as IC50.
Design: species or system Nauru/West Pac/1974

Row | Compound | IC50
1 | N=C(N)NCCC[C@H](NC(=O)c1nccs1)C(=O)N[C@@H](CCCCN)C(=O)N[C@@H](C(N)=O)c1ccc(OCc2ccc(C(F)(F)F)cc2)cc1 | 920 nM and 1.03 µM (2×) and 1 µM and 926 nM and 1.69 µM and 865 nM
2 | N=C(N)NCCC[C@H](NC(=O)[C@H](Cc1ccc(CN)cc1)NC(=O)c1ccccc1)B(O)O | 0.31 µM and 0.315 µM
3 | COCCNC(=O)[C@H](Nc1ccc2c(c1)CNC2)c1cc(Cl)cc(C2CC2)c1 | > 99.5 µM
4 | O=C(NCC(F)F)[C@H](Nc1ccc2c(c1)CNC2)c1cc(Cl)cc(C2CC2)c1 | > 99.5 µM
5 | O=C(Nc1ccc2c(c1)CNCC2)c1cc(Cl)cc2[nH]ncc12 | > 99.5 µM
6 | CC(C)(C)c1cc(Br)cc(C(=O)Nc2ccc3c(c2)CNC3)c1 | > 99.5 µM
7 | Clc1ccc2[nH]cc(Cc3ccc(-c4nn[nH]n4)cc3)c2c1 | 62.9 µM
8 | CN1Cc2ccc(NC(=O)c3cc(Cl)cc4[nH]ncc34)cc2C1 | > 99.5 µM
9 | O=C(Nc1ccc2c(c1)CNC2)c1cccc(-c2cnco2)c1 | 20.3 µM
10 | CC(C)NC(=O)[C@H](Nc1ccc2c(c1)CNC2)c1cc(Cl)cc2[nH]ncc12 | 34.4 µM
11 | Cn1cc2cc(Cl)cc(C(=O)Nc3ccc4c(c3)CNC4)c2n1 | > 99.5 µM
12 | O=C(Nc1ccc2c(c1)CNC2)c1cc(Br)cc2ccccc12 | 83.7 µM
13 | O=C(Nc1ccc2c(c1)CNC2)c1cc(Cl)cc2c1CCC2 | > 99.5 µM
14 | CNC(=O)[C@H](Nc1ccc2c(c1)CNC2)c1cc(Cl)cc(C2CC2)c1 | > 99.5 µM
15 | O=C1Cc2c(cccc2C(=O)Nc2ccc3c(c2)CNC3)N1 | 11.3 µM
16 | O=C(Nc1ccc2c(c1)CNC2)c1cc(Br)cc2[nH]c(-c3ccccc3)nc12 | 1.24 µM
17 | N#C[C@H](Nc1ccc2c(c1)CNC2)c1cc(Cl)cc(C2CC2)c1 | > 99.5 µM
18 | O=C(Nc1cc(Cl)cc([C@H]2CN(Cc3ccccc3)C[C@@H]2c2cccc(-c3nn[nH]n3)c2)c1)OCc1ccccc1 | 6.63 µM
19 | Clc1cc(CNc2ccc3c(c2)CNC3)c2cn[nH]c2c1 | 30.9 µM
20 | CC(C)c1cc(Br)cc(C(=O)Nc2ccc3c(c2)CNC3)c1 | > 99.5 µM
21 | O=C(NC1CCOCC1)[C@H](Nc1ccc2c(c1)CNC2)c1cc(Cl)cc(C2CC2)c1 | > 99.5 µM
22 | Cn1cc(CNC(=O)[C@H](Nc2ccc3c(c2)CNC3)c2cc(Cl)cc(C3CC3)c2)cn1 | > 99.5 µM
23 | O=C(Nc1cc(Cl)cc(C(=O)Nc2ccc3c(c2)CNC3)c1)OCc1ccccc1 | > 99.5 µM
24 | Cn1cc(CCc2nc3c(C(=O)Nc4ccc5c(c4)CNC5)cc(Cl)cc3[nH]2)cn1 | 21.6 µM
25 | O=C(Nc1ccc2c(c1)CNC2)c1cc(F)cc2[nH]ncc12 | 68.2 µM

Row | Compound | IC50
26 | Cc1c(C(=O)Nc2cc([C@H]3CCOC3)ccn2)cc(C2CC2)n1C | > 99.5 µM
27 | O=C(Nc1ccc2c(c1)CNC2)c1cc(Cl)cc2ccncc12 | > 99.5 µM
28 | O=C1Cc2c(cc(Br)cc2C(=O)Nc2ccc3c(c2)CNC3)N1 | 84.6 µM
29 | CC(C)NC(=O)[C@H](Nc1ccc2c(c1)CNC2)c1cc(Cl)cc2[nH]c(-c3ccccc3)nc12 | 7.46 µM and 2.06 µM
30 | O=C(Nc1cc(Cl)cc([C@H](C#CCO)Nc2cccc(-c3nn[nH]n3)c2)c1)OCc1ccccc1 | 12.7 µM
31 | NCCc1csc2cc(C(=O)Nc3cc([C@H]4CCOC4)ccn3)ccc12 | > 99.5 µM
32 | O=C(Nc1ccc2c(c1)CNC2)c1cccc2[nH]c(C(F)(F)F)cc12 | > 99.5 µM
33 | O=C(Nc1ccc2c(c1)CNC2)c1cc(Cl)cc2cn[nH]c12 | > 99.5 µM
34 | N#Cc1cccc(-c2nc3c(C(=O)Nc4ccc5c(c4)CNC5)cc(F)cc3[nH]2)c1 | 2.41 µM
35 | NCc1cccc([C@H]2C[C@@H]2c2cc(Cl)cc(NC(=O)OCc3ccccc3)c2)c1 | 25.3 µM
36 | C=CC[C@H]1NCc2cc(NC(=O)c3cccc4c3CC(=O)N4)ccc21 | > 99.5 µM
37 | N#C[C@H](Nc1cccc(-c2nn[nH]n2)c1)c1cc(Cl)cc(NC(=O)OCc2ccccc2)c1 | 10 µM
38 | O=C(Nc1ccc2c(c1)CNC2)c1cc(Cl)cc2[nH]ncc12 | 69.2 µM
39 | O=C(Nc1ccc2c(c1)CNC2)c1ccc2[nH]cc(C3CCNCC3)c2c1 | 31.2 µM
40 | O=C(Nc1ccc2c(c1)CNC2)c1cc(Br)cc2[nH]c(=O)[nH]c12 | 32.7 µM
41 | N#C[C@H](Nc1ccc2c(c1)CNC2)c1cc(Cl)cc2[nH]ncc12 | > 99.5 µM
42 | O=C(Nc1cc(Cl)cc(C(=O)Nc2cccc([C@H]3C[C@H]3C(=O)O)c2)c1)OCc1ccccc1 | 25.2 µM
43 | Clc1cc([C@@H]2C[C@H]2c2cccc(C3CCNCC3)c2)c2cn[nH]c2c1 | 5.94 µM
44 | Cc1c(C(=O)Nc2cc(-c3cccnc3)ccn2)cc(C2CC2)n1C | 4.83 µM
45 | O=C(NCC(F)F)[C@H](Nc1ccc2c(c1)CNC2)c1cc(F)cc2[nH]ccc12 | > 99.5 µM
46 | CC(C)c1nnc(-c2nc3c(C(=O)Nc4ccc5c(c4)CNC5)cc(F)cc3[nH]2)s1 | 21.8 µM
47 | C=CC[C@H]1NCc2cc(NC(=O)c3cc(Cl)cc4[nH]ncc34)ccc21 | > 99.5 µM
48 | Cc1nc2c(C(=O)Nc3ccc4c(c3)CNC4)cc(Cl)cc2[nH]1 | > 99.5 µM
49 | O=C(Nc1cc(Cl)cc(-c2ccc3[nH]c(C(=O)O)cc3c2)c1)OCc1ccccc1 | 5.82 µM
50 | O=C(NCCC1CC1)[C@H](Nc1ccc2c(c1)CNC2)c1cc(Cl)cc(C2CC2)c1 | > 99.5 µM

Row | Compound | IC50
51 | NCc1cccc(-c2csc3cc(C(=O)Nc4ccc5c(c4)CNC5)ccc23)c1 | 29.9 µM
52 | N#Cc1cc2c(cc1NC(=O)c1cc(F)cc3[nH]ncc13)CNC2 | 59.7 µM
53 | O=C(Nc1ccc2c(c1)CNC2)c1cc(Cl)cc2cc[nH]c12 | > 99.5 µM
54 | C=CC[C@H]1NCc2cc(NC(=O)c3cc(F)cc4[nH]ncc34)ccc21 | > 99.5 µM
55 | Cc1ccccc1-c1nc2c(C(=O)Nc3ccc4c(c3)CNC4)cc(F)cc2[nH]1 | 2.19 µM
56 | O=C(Nc1cc(Br)c2c(c1)CNC2)c1cc(F)cc2[nH]ncc12 | 75.5 µM
57 | C=CC[C@H](Nc1cc(Cl)cc(NC(=O)OCc2ccccc2)c1)c1cccc(-c2nn[nH]n2)c1 | 6.41 µM
58 | CNC(=O)[C@H](Nc1cc(CN)cc(C(=O)O)c1)c1cc(Cl)cc(C2CC2)c1 | > 99.5 µM
59 | O=C(NCC(F)F)[C@H](Nc1ccc2c(c1)CNC2)c1cc(F)cc2[nH]ncc12 | > 99.5 µM
60 | O=C1Cc2c(cc(F)cc2C(=O)Nc2ccc3c(c2)CNC3)N1 | 36.2 µM
61 | O=C(Nc1cc(Cl)cc([C@H]2C[C@@H]2c2cccc(C3CCNCC3)c2)c1)OCc1ccccc1 | 6.28 µM
62 | O=C(Nc1ccc2c(c1)CNC2)c1ccc2c(C3=CCNCC3)csc2c1 | 56.3 µM
63 | CC(C)CNC(=O)c1cc(Cl)ccc1NS(=O)(=O)c1ccc(Oc2ccccc2Cl)cc1 | 14.4 µM
64 | C=CC[C@H]1NCc2cc(N[C@H](C(=O)NC(C)C)c3cc(Cl)cc4[nH]ncc34)ccc21 | 81.8 µM
65 | O=C(Nc1ccc2c(c1)CNC2)c1cc(F)cc2[nH]c(-c3ccccc3F)nc12 | 3.86 µM
66 | O=C(NC1CCOCC1)[C@H](Nc1ccc2c(c1)CNC2)c1cc(Cl)cc2[nH]ncc12 | > 99.5 µM
67 | CNC(=O)[C@H](Nc1cc(Cl)cc(NC(=O)OCc2ccccc2)c1)c1cccc(-c2nn[nH]n2)c1 | 46.5 µM
68 | O=C(Nc1ccc2c(c1)CNC2)c1cc(F)c2[nH]ccc2c1 | > 99.5 µM
69 | N[C@H]1CC[C@H](c2ccc(NC(=O)c3cc(Cl)cc(NC(=O)OCc4ccccc4)c3)cc2)C1 | 8.49 µM
70 | Cn1c(=O)[nH]c2c(C(=O)Nc3ccc4c(c3)CNC4)cc(Br)cc21 | > 99.5 µM
71 | OCC#C[C@H](Nc1ccc2c(c1)CNC2)c1cc(Cl)cc2[nH]ncc12 | 19.4 µM
72 | O=C(Nc1ccc2c(c1)CNC2)c1cc(F)cc2c1CCC2 | > 99.5 µM
73 | NCc1cccc(NC(=O)c2cc(Cl)cc(NC(=O)OCc3ccccc3)c2)c1 | 51.1 µM
74 | c1cc(C2CCN(Cc3c[nH]c4ccccc34)CC2)c2ccncc2c1 | > 99.5 µM
75 | Cc1cccc(-c2nc3c(C(=O)Nc4ccc5c(c4)CNC5)cc(Cl)cc3[nH]2)c1O | 4.26 µM

Row | Compound | IC50
76 | O=C(Nc1ccc2c(c1)CNC2)c1cccc2[nH]c(=O)[nH]c12 | 65.5 µM
77 | O=C(Nc1ccc2c(c1)CNC2)c1cc(Cl)cc(C(F)(F)F)n1 | 7.25 µM
78 | O=C(Nc1ccc2c(c1)CNC2)c1cc(F)cc2[nH]c(-c3ccc(F)cc3)nc12 | 2.8 µM
79 | CCc1cc(C(=O)Nc2cccc(-n3nn[nH]c3=O)c2)sc1-c1ccc(Cl)cc1 | 11.4 µM
80 | Cc1c(C(=O)Nc2cc(CCCN)ccn2)cc(C2CC2)n1C | 25.5 µM
81 | O=C(Nc1ccc2c(c1)CNC2)c1cccc2nc(O)ccc12 | > 99.5 µM
82 | NCc1ccc([C@H]2C[C@@H]2c2cc(Cl)cc(NC(=O)OCc3ccccc3)c2)cc1 | 8.89 µM
83 | COc1cc(-c2cc(NC(=O)c3cc(F)cc4[nH]ncc34)cc3c2CNC3)ccn1 | 82.8 µM
84 | CCOCCNC(=O)[C@H](Nc1ccc2c(c1)CNC2)c1cc(Cl)cc2[nH]ncc12 | > 99.5 µM
85 | O=C(Nc1cc(Cl)cc(C(=O)Nc2ccc3c(c2)CCNC3)c1)OCc1ccccc1 | 47.7 µM
86 | CC(C)(c1nc2c(C(=O)Nc3ccc4c(c3)CNC4)cc(F)cc2[nH]1)S(C)(=O)=O | 16.1 µM
87 | O=C1Cc2cc(C(=O)Nc3ccc4c(c3)CNC4)ccc2N1 | 5.26 µM and 4.47 µM
88 | NCCc1csc2cc(C(=O)Nc3ccc4c(c3)CNC4)ccc12 | > 99.5 µM
89 | Cc1ccc(NC(=O)c2cc(Cl)cc(NC(=O)OCc3ccccc3)c2)cc1CN | > 99.5 µM
90 | O=C(Nc1ccc2c(c1)CNC2)c1cc(F)cc2[nH]c(-c3ccccc3)nc12 | 3.67 µM
91 | O=C(Nc1ccc2c(c1)CNC2)c1cc(Cl)cc2nn(-c3ccccc3)nc12 | 2.69 µM
92 | Cc1[nH]c2ccccc2c1CN1CCC(c2c[nH]c3ncccc23)CC1 | > 99.5 µM
93 | O=C(Nc1ccc2c(c1)CNC2)c1cccc2cn[nH]c12 | 49.9 µM
94 | O=C(Nc1cc2c(cc1Br)CNC2)c1cc(F)cc2[nH]ncc12 | > 99.5 µM
95 | O=C(Nc1ccc2c(c1)CNC2)c1ccc2[nH]ccc2c1 | > 99.5 µM
96 | O=C(Nc1cc2c(c(C3=CCS(=O)(=O)CC3)c1)CNC2)c1cc(F)cc2[nH]ncc12 | > 99.5 µM
97 | CNC(=O)[C@H](Nc1cc(CN)cc(-c2nn[nH]n2)c1)c1cc(Cl)cc(C2CC2)c1 | > 99.5 µM
98 | O=C(Nc1cc2c(c(C3=CCOCC3)c1)CNC2)c1cc(F)cc2[nH]ncc12 | 39.9 µM
99 | O=C(Nc1cc(Cl)cc(C(=O)Nc2cccc(-n3nn[nH]c3=O)c2)c1)OCc1ccccc1 | 11.6 µM
